pIC50: −log10 of the molar value.

Experiment [1] has as its target hSMYD2 (Homo sapiens, UniProt Q9NRG4). Briefly: Epigenetic enzyme assay, Methyltransferases (MTs). It is filed as biochemical. The following applies: for inhibition at 10 µM: read-out: % Inhibition of Control Values.
The target of experiment [2] is T1, SP140 (h) bromodomain (Homo sapiens, UniProt Q13342).
T1 construct: SP140 (h) bromodomain
Briefly: Epigenetic binding assay, Bromodomain. Also noted: inhibition of binding, 1st / inhibition of binding, 2nd / inhibition of binding, Mean: unit: %. The following applies: for inhibition at 10 µM: read-out: % Inhibition of Control Specific Binding.

Experiment [3] has as its target UTX (h) (Homo sapiens, UniProt O15550). Briefly: Epigenetic enzyme assay, Demethylases (KDMs). It is filed as biochemical. The following applies: for inhibition at 10 µM: read-out: % Inhibition of Control Values.
Experiment [4] concerns the target T2, G9a (h) (Homo sapiens, UniProt Q96KQ7).
T2 sequence (Q96KQ7 1-1210): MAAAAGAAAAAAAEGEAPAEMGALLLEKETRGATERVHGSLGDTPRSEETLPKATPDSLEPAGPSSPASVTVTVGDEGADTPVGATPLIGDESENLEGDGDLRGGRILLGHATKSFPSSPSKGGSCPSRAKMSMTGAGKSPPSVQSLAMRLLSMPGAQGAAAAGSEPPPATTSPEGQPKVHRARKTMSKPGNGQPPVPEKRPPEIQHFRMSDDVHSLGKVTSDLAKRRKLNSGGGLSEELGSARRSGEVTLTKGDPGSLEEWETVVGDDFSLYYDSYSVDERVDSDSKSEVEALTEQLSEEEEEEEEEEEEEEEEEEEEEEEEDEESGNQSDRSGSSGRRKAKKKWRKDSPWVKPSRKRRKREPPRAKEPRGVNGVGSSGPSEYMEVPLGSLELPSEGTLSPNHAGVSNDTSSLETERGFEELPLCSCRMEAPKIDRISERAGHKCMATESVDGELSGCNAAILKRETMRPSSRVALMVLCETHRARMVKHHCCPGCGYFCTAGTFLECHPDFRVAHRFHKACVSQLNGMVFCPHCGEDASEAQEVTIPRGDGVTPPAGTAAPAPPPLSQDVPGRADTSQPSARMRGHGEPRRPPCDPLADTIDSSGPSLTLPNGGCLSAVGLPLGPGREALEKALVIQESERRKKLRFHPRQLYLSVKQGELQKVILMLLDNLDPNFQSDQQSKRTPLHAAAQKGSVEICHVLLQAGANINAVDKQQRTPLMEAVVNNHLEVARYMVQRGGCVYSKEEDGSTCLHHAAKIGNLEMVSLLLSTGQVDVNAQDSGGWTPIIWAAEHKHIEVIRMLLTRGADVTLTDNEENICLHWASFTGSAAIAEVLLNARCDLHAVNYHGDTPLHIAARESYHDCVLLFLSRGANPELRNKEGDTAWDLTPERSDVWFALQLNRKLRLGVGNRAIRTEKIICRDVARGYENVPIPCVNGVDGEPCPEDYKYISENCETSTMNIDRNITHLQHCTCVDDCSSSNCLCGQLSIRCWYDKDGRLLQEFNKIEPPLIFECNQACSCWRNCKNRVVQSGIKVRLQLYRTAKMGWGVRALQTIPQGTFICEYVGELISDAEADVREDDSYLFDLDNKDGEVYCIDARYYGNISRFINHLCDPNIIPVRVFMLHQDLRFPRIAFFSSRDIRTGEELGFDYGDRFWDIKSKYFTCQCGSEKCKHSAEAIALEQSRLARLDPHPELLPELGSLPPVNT
Briefly: Epigenetic enzyme assay, Methyltransferases (MTs). Format: biochemical. The following applies: for % Inhibition of Control Values / inhibition at 10 µM: 10 μM; for inhibition at 10 µM: read-out: % Inhibition of Control Values; for pIC50: Table 11, inhibition/concentration-response curve.

In experiment [5] the target is T3, NSD3/WHSC1L1 (h) (Homo sapiens, UniProt Q9BZ95).
T3 sequence (Q9BZ95 1-1437): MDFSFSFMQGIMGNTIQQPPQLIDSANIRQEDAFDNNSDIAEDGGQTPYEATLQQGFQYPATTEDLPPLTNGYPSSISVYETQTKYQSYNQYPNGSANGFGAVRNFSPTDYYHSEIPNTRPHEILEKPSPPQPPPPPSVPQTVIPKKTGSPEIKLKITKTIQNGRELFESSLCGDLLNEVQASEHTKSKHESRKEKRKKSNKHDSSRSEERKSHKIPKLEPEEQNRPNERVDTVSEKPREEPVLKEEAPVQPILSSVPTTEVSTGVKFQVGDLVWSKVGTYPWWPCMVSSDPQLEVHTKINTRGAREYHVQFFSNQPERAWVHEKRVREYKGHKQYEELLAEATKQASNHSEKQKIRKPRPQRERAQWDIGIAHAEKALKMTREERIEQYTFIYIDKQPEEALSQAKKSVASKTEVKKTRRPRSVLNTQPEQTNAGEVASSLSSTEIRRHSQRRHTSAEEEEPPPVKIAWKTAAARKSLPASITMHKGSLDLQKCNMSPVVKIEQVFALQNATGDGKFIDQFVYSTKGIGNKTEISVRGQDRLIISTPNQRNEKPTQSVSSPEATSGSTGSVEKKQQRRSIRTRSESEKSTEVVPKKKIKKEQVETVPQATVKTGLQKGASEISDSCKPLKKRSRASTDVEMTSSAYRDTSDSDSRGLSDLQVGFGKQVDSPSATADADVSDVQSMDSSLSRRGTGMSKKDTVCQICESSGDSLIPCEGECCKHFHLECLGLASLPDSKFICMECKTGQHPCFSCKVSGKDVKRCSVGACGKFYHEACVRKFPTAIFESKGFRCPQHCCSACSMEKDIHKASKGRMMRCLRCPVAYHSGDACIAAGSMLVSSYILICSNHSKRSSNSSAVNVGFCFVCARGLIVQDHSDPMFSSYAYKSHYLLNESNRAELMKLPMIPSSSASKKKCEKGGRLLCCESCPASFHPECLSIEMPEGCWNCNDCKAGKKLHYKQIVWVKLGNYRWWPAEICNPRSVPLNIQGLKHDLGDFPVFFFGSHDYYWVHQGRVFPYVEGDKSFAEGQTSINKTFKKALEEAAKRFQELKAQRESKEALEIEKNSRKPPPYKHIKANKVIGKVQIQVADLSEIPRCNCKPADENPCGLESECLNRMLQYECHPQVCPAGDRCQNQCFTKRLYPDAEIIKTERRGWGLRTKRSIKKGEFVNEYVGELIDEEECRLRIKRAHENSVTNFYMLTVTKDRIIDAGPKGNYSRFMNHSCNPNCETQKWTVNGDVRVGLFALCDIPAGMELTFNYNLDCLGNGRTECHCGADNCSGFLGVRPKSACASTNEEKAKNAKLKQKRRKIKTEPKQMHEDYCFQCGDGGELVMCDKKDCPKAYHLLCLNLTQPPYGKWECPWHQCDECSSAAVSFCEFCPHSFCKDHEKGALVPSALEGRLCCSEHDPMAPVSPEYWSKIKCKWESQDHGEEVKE
Briefly: Epigenetic enzyme assay, Methyltransferases (MTs). Format: biochemical. The following applies: 10 μM; read-out: % Inhibition of Control Values.

hSMYD2, sequence (Q9NRG4 whole entry): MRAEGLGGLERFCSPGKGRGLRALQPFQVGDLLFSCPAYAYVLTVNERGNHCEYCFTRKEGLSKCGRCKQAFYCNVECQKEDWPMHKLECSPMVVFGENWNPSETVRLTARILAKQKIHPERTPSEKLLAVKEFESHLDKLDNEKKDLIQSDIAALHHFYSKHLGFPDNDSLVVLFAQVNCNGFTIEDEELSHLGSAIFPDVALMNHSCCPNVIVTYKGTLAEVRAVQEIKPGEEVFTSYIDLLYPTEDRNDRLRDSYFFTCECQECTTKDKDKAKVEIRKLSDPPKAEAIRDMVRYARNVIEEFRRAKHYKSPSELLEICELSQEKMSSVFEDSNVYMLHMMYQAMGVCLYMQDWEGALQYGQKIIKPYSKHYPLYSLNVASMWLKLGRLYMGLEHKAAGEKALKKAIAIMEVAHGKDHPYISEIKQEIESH
T1 sequence (Q13342 754-857 limits assumed): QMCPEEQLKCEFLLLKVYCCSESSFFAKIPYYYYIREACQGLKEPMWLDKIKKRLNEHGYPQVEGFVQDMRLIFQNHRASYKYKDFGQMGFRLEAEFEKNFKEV
UTX (h), sequence (O15550 whole entry): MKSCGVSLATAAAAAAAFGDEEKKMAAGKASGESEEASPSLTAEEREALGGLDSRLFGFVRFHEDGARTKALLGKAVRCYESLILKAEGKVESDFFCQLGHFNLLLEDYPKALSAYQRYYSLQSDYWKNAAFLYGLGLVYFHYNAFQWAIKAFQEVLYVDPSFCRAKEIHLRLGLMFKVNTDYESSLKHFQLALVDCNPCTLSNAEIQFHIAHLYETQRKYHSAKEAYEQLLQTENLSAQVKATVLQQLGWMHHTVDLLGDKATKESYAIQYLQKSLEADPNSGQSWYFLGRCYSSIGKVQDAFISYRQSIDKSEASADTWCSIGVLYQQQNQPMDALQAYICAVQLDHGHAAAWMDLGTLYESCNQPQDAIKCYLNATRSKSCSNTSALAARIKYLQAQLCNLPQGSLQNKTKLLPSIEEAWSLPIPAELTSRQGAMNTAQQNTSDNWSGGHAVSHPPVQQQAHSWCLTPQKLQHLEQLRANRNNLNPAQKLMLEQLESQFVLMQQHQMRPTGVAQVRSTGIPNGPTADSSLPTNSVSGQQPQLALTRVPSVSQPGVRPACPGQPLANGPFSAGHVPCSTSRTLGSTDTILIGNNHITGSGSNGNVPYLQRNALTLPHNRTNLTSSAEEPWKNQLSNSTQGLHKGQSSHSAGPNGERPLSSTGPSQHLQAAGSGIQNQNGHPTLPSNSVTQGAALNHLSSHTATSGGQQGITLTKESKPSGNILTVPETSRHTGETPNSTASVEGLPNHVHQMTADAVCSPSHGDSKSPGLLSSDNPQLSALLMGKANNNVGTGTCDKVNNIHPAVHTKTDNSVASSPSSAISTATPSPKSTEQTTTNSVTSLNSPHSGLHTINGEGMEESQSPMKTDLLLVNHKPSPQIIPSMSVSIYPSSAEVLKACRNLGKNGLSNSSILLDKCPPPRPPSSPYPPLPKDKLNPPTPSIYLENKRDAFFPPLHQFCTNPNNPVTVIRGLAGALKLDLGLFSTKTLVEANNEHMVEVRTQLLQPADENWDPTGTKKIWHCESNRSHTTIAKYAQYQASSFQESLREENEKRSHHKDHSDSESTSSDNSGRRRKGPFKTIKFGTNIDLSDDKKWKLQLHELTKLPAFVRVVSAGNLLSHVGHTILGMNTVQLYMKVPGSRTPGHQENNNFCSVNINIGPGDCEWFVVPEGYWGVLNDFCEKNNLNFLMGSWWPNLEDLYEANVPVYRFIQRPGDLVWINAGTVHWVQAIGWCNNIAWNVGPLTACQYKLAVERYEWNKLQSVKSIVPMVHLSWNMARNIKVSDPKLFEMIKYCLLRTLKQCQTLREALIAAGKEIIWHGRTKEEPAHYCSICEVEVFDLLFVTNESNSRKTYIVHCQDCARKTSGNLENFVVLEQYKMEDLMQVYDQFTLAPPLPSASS

Regarding `CC(C)=CCC[C@@H]1COc2c(C)cc(O)c3c2[C@H]1CC[C@H]3C` [Compound 3, 5,18-epoxy-8-hydroxyserrulat-14-ene], the inhibition at 10 µM in experiment [1] is -12%; in experiment [2] (10 μM), 1%; in experiment [3] (10 μM), 27%; in experiment [4], 49%; in experiment [5] it was -35%. The “% Inhibition of Control Values” in experiment [4] is “weaker”.
Regarding `CC(C)=CCC[C@@H]1C(O)Oc2c(C)cc(O)c3c2[C@H]1CC[C@H]3C` (stereo partly shown) [Compound 2, 5,18-epoxyserrulat-14-en-8,18-diol], the inhibition at 10 µM in experiment [1] worked out at 5%; in experiment [2] (10 μM), 43%; in experiment [3] (10 μM) it was 5%; in experiment [4], 64%; in experiment [5], 11%. The “% Inhibition of Control Values” in experiment [4] is on record as “weaker”. In addition, in experiment [4], the pIC50 was 5.27.
For the compound `Nc1ncnc2c1ncn2[C@@H]1O[C@H](CSCC[C@H](N)C(=O)O)[C@@H](O)[C@H]1O` [SAH], the pIC50 in experiment [1] (read-out: Reference IC50) is 6.80.
With `CC(C)=CCC[C@H](CO)[C@@H]1CC[C@@H](C)c2c1cc(C)c(O)c2O` [Compound 1, 7,8,18-trihydroxyserrulat-14-ene], the inhibition at 10 µM is 12% in experiment [1]; 84% in experiment [2] (10 μM); 68% in experiment [3] (10 μM); 86% in experiment [4]; -17% in experiment [5]. For the same compound, the “% Inhibition of Control Specific Binding” value in experiment [2] (10 μM) is “significant inhibitory activity”. For the same compound, the “inhibition of binding, 1st” value in experiment [2] (3.0E−05M) was 102.3; in experiment [2] (3.0E−06M), 8.4; in experiment [2] (3.0E−07M), −14.1; in experiment [2] (3.0E−08M), −9.7; in experiment [2] (3.0E−09M) it was −6.0. Besides, the “inhibition of binding, 2nd” value in experiment [2] (3.0E−05M) was 102.3; in experiment [2] (3.0E−06M), 11.3; in experiment [2] (3.0E−07M), −11.0; in experiment [2] (3.0E−08M) it was −14.6; in experiment [2] (3.0E−09M) it was −8.6. The “inhibition of binding, Mean” value in experiment [2] (3.0E−05M) is 102.3; in experiment [2] (3.0E−06M), 9.9; in experiment [2] (3.0E−07M) it was −12.6; in experiment [2] (3.0E−08M) it was −12.1; in experiment [2] (3.0E−09M) it was −7.3. Further, the pIC50 in experiment [2] (Table 9, inhibition/concentration-response curve, read-out: IC50) was 5.42; in experiment [3] (Table 11, inhibition/concentration-response curve) it was 5.17; in experiment [4], 4.96. Besides, the results for the “% Inhibition of Control Values” in experiment [3] (10 μM) and in experiment [4] were “significant inhibitory activity” and “strong inhibitor”, respectively.

As usually defined, the inhibition is the change of the read-out against control, counted positive when it falls. Broadly, the pIC50 is the negative decadic logarithm of the IC50, by convention in mol/L.

For the origin of these results see patent US11331299B2, “Medicinal use of serrulatane diterpenes” (The University of Sydney, priority 2016, dated 2022).
